The structures appear in SMILES notation.

As a reminder, the IC50 is the concentration at which inhibition is half-maximal.

One assay has as its target FAAH (Homo sapiens (Human), UniProt O00519). Briefly: In vitro competitive activity-based protein profiling (human prefrontal cortex membrane fractions, FP-Rh probe), FAAH band. The note with it: for IC50: read-out: FAAH IC50 (μM) (human), human prefrontal cortex membrane fractions.
The next assay deals with MAGL (Homo sapiens (Human), UniProt Q99685). Briefly: In vitro competitive activity-based protein profiling (human prefrontal cortex membrane fractions, FP-Rh probe), MAGL band. The note with it: for IC50: read-out: MAGL IC50 (μM) (human), human prefrontal cortex membrane fractions.
MAGL, sequence (Q99685 whole entry): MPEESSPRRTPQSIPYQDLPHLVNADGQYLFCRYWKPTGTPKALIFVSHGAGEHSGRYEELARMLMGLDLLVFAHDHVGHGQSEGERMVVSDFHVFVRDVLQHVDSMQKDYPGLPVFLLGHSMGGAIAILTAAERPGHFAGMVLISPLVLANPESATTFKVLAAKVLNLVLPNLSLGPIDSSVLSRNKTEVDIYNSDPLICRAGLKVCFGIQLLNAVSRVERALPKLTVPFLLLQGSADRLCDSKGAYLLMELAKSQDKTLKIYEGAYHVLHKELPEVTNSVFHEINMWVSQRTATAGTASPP

FAAH, sequence (O00519 whole entry): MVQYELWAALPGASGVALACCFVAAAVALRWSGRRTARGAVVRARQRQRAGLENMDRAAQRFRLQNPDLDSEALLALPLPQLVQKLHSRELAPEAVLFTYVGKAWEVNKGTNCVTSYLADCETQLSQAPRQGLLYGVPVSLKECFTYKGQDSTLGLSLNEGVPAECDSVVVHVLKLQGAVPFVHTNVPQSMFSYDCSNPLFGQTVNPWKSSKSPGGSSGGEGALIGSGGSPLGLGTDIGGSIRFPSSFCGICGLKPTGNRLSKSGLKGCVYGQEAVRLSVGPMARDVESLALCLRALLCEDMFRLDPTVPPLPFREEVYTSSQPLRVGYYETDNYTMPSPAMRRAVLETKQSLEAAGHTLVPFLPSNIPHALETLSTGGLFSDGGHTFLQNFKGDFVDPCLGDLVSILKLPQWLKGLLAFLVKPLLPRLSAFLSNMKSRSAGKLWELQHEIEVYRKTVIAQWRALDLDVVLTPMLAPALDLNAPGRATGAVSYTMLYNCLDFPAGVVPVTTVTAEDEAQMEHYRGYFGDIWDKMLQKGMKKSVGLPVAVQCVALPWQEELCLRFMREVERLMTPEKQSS
Procedure for FAAH: Biological Evaluation In Vitro Competitive Activity-Based Protein Profiling.
Proteomes (mouse brain membrane fraction for mouse assays; human prefrontal cortex membrane fractions for human assays) (50 mL, 1.0 mg/mL total protein concentration) were preincubated with varying concentrations of inhibitors at 37° C. After 30 min, FP-Rh (1.0 mL, 50 mM in DMSO) was added and the mixture was incubated for another 30 min at 37° C. Reactions were quenched with SDS loading buffer (15 μL-4×) and run on SDS-PAGE.

With `NC(=O)c1ccn(C(=O)N2CCN(Cc3cccc(Oc4ccccc4)c3)CC2)n1` [Example 198, 1-(4-(3-phenoxybenzyl)-piperazine-1-carbonyl)-1H-pyrazole-3-carboxamide], the inhibition at 1 µM at FAAH (read-out: FAAH % inh. 1 μM (human)) and on MAGL (read-out: MAGL % inh. 1 μM (human)) was more than 75% each time.
As to `CN(Cc1ccc(C(F)(F)F)cc1)[C@@H]1C[C@@H]2CN(C(=O)n3ccc(C(N)=O)n3)C[C@@H]2C1` [Example 205, 1-(cis-5-(methyl(4-(trifluoromethyl)-benzyl)amino)-octahydrocyclopenta-[c]pyrrole-2-carbonyl)-1H-pyrazole-3-carboxamide], the IC50 on FAAH and at MAGL was less than 0.1 µM each time.
Take `NC(=O)c1ccn(C(=O)N2CC3CN(Cc4cc(Cl)cc(C(F)(F)F)c4)CC3C2)n1` (stereo not drawn) [Example 201, 1-(5-(3-chloro-5-(trifluoromethyl)-benzyl)-octahydropyrrolo-[3,4-c]pyrrole-2-carbonyl)-1H-pyrazole-3-carboxamide]: the IC50 at FAAH and at MAGL was less than 0.1 µM in each case.
For the compound `O=C(O)c1nn(C(=O)N2CCC3(CCCN3Cc3cc4ccc(C(F)(F)F)cc4s3)CC2)cc1Cl` [Example 139, 4-chloro-1-(1-((6-(trifluoromethyl)-benzo[b]thiophen-2-yl)methyl)-1,8-diazaspiro[4.5]-decane-8-carbonyl)-1H-pyrazole-3-carboxylic acid], the IC50 on FAAH and at MAGL was less than 0.1 µM in each case.
Consider `CN(Cc1ccccc1C(F)(F)F)[C@@H]1C[C@@H]2CN(C(=O)n3ccc(C(N)=O)n3)C[C@@H]2C1` [Example 204, 1-(cis-5-(methyl(2-(trifluoromethyl)-benzyl)amino)-octahydrocyclopenta-[c]pyrrole-2-carbonyl)-1H-pyrazole-3-carboxamide], for which the IC50 at FAAH and on MAGL was less than 0.1 µM each time.
`O=C(O)c1ccn(C(=O)N2C[C@H]3C[C@H](Oc4cccc(-c5ccccc5)c4)C[C@H]3C2)n1` [Example 125, 1-(trans-5-([1,1′-biphenyl]-3-yloxy)-octahydrocyclopenta-[c]pyrrole-2-carbonyl)-1H-pyrazole-3-carboxylic acid]: the IC50 on FAAH and on MAGL was less than 0.1 µM throughout.
On to `NC(=O)c1ccn(C(=O)N2CC3CN(Cc4ccc(N5CCOCC5)cc4C(F)(F)F)CC3C2)n1` (stereo not drawn) [Example 17, 1-(5-(4-Morpholino-2-(trifluoromethyl)benzyl)octahydropyrrolo[3,4-c]pyrrole-2-carbonyl)-1H-pyrazole-3-carboxamide], for which the IC50 at FAAH and on MAGL was less than 0.1 µM each time.
Turning to `Cc1cc(CO[C@H]2C[C@@H]3CN(C(=O)n4ccc(C(=O)O)n4)C[C@@H]3C2)ccc1C(F)(F)F` [Example 172, 1-(trans-5-((3-methyl-4-(trifluoromethyl)-benyl)oxy)-octahydrocyclopenta-[c]pyrrole-2-carbonyl)-1H-pyrazole-3-carboxylic acid], the IC50 on FAAH and at MAGL was less than 0.1 µM in each case.
In the case of `NC(=O)c1ccn(C(=O)N2CC3CN(Cc4cccc(C(F)(F)F)c4)CC3C2)n1` (stereo not drawn) [Example 208, 1-(5-(3-(trifluoromethyl)-benzyl)-octahydropyrrolo-[3,4-c]pyrrole-2-carbonyl)-1H-pyrazole-3-carboxamide], the IC50 on FAAH and on MAGL was less than 0.1 µM throughout.
`CN(Cc1ccccc1Cl)[C@@H]1C[C@@H]2CN(C(=O)n3ccc(C(N)=O)n3)C[C@@H]2C1` [Example 206, 1-(cis-5-((2-chlorobenzyl)-(methyl)amino)-octahydrocyclopenta-[c]pyrrole-2-carbonyl)-1H-pyrazole-3-carboxamide]: the 50% inhibitory concentration (IC50) on FAAH and on MAGL was less than 0.1 µM throughout.
Consider `O=C(O)c1nn(C(=O)N2CCC3(CCN(Cc4cc(Cl)ccc4C(F)(F)F)C3)CC2)cc1C(F)(F)F` [Example 148, 1-(2-(5-chloro-2-(trifluoromethyl)-benzyl)-2,8-diazaspiro[4.5]-decane-8-carbonyl)-4-(trifluoromethyl)-1H-pyrazole-3-carboxylic acid], for which, at MAGL, the IC50 is less than 0.1 µM.
On the same count and under the same terms, with `Cc1cn(C(=O)N2CCN(Cc3cccc(Oc4ccc(Cl)cc4)c3)C[C@@H]2C)nc1C(=O)O` [Example 442, (S)-1-(4-(3-(4-chlorophenoxy)-benzyl)-2-methylpiperazine-1-carbonyl)-4-methyl-1H-pyrazole-3-carboxylic acid] the figure was less than 0.1 µM; with `O=C(O)c1ccn(C(=O)N2C[C@H]3C[C@H](Oc4ccccc4-c4ccccc4)C[C@H]3C2)n1` [Example 239, 1-(trans-5-([1,1′-biphenyl]-2-yloxy)-octahydrocyclopenta-[c]pyrrole-2-carbonyl)-1H-pyrazole-3-carboxylic acid], less than 0.1 µM; with `O=C(O)c1ccn(C(=O)N2C[C@H]3C[C@H](Oc4cccc(C5CCCC5)c4)C[C@H]3C2)n1` [Example 232, 1-(trans-5-(3-cyclopentyl-phenoxy)-octahydrocyclopenta-[c]pyrrole-2-carbonyl)-1H-pyrazole-3-carboxylic acid], less than 0.1 µM.
Still for that read-out and setting: with `O=C(O)c1nn(C(=O)N2CC3CN(Cc4ccc(N5CCCC5)cc4C(F)(F)F)CC3C2)cc1Cl` (stereo not drawn) [Example 140, 4-chloro-1-(5-(4-(pyrrolidin-1-yl)-2-(trifluoromethyl)-benzyl)-octahydropyrrolo-[3,4-c]pyrrole-2-carbonyl)-1H-pyrazole-3-carboxylic acid] the figure was less than 0.1 µM; with `O=C(O)c1nn(C(=O)N2C[C@H]3C[C@H](Oc4cccc(-c5ccccc5)c4)C[C@H]3C2)cc1Cl` [Example 304, 1-(trans-5-([1,1′-biphenyl]-3-yloxy)-octahydrocyclopenta-[c]pyrrole-2-carbonyl)-4-chloro-1H-pyrazole-3-carboxylic acid], less than 0.1 µM; with `O=C(O)c1ccn(C(=O)N2CCC3(CCCN3Cc3cc(-n4cccn4)cc(C(F)(F)F)c3)CC2)n1` [Example 32, 1-(1-(3-(1H-pyrazol-1-yl)-5-(Trifluoromethyl)benzyl)-1,8-diazaspiro[4.5]decane-8-carbonyl)-1H-pyrazole-3-carboxylic Acid], less than 0.1 µM.
On the same count and under the same terms, with `O=C(O)c1ccn(C(=O)N2CCN(Cc3cccc(Oc4ccccc4Cl)c3)CC2)n1` [Example 85, 1-(4-(3-(2-chlorophenoxy)-benzyl)piperazine-1-carbonyl)-1H-pyrazole-3-carboxylic acid] the figure was less than 0.1 µM.
As for `C[C@@H]1CN(Cc2cccc(Oc3cc(C(F)(F)F)ccn3)c2)CCN1C(=O)n1ccc(C(=O)O)n1` [Example 374, (R)-1-(2-methyl-4-(3-((4-(trifluoromethyl)-pyridin-2-yl)oxy)benzyl)-piperazine-1-carbonyl)-1H-pyrazole-3-carboxylic acid], the IC50 on MAGL was less than 0.1 µM.
Same read-out and setting: for `Cc1cc(-c2ccccc2)ccc1CN1CCN(C(=O)n2ccc(C(=O)O)n2)[C@H](C)C1` [Example 245, (R)-1-(2-methyl-4-((3-methyl-[1,1′-biphenyl]-4-yl)methyl)-piperazine-1-carbonyl)-1H-pyrazole-3-carboxylic acid] the value was less than 0.1 µM.
On the same count and under the same terms, for `CC(C)(O)COc1cccc(CN2CCN(C(=O)n3ccc(C(N)=O)n3)CC2)c1Cl` [Example 37, 1-(4-(2-Chloro-3-(2-hydroxy-2-methylpropoxy)benzyl)piperazine-1-carbonyl)-1H-pyrazole-3-carboxamide] the value was less than 0.1 µM; for `O=C(O)c1ccn(C(=O)N2CCN(Cc3cccc(Oc4cc(C(F)(F)F)ccn4)c3)CC2)n1` [Example 57, 1-(4-(3-((4-(trifluoromethyl)-pyridin-2-yl)oxy)benzyl)-piperazine-1-carbonyl)-1H-pyrazole-3-carboxylic acid], less than 0.1 µM; for `O=C(O)c1ccn(C(=O)N2CCN(Cc3cc(F)cc(Oc4ccccc4Cl)c3)CC2)n1` [Example 319, 1-(4-(3-(2-chlorophenoxy)-5-fluorobenzyl)-piperazine-1-carbonyl)-1H-pyrazole-3-carboxylic acid], less than 0.1 µM.
The same measure, in the same setting: with `CC(C)(O)COc1cccc(CN2CCN(C(=O)n3ccc(C(=O)O)n3)CC2)c1Cl` [Example 213, 1-(4-(2-chloro-3-(2-hydroxy-2-methylpropoxy)-benzyl)piperazine-1-carbonyl)-1H-pyrazole-3-carboxylic acid] the figure was less than 0.1 µM; with `NC(=O)c1ccn(C(=O)N2CCC3(CCCN3Cc3cc4ccc(C(F)(F)F)cc4s3)CC2)n1` [Example 22, 1-(1-((6-(Trifluoromethyl)benzo[b]thiophen-2-yl)methyl)-1,8-diazaspiro[4.5]decane-8-carbonyl)-1H-pyrazole-3-carboxamide], less than 0.1 µM.
As for `O=C(O)c1nn(C(=O)N2CCN(Cc3cccc(Oc4ccc(F)cc4)c3)CC2)cc1Cl` [Example 320, 4-chloro-1-(4-(3-(4-fluorophenoxy)-benzyl)-piperazine-1-carbonyl)-1H-pyrazole-3-carboxylic acid], the IC50 at MAGL was less than 0.1 µM.
Still for that read-out and setting: with `C[C@@H]1CN(Cc2ccc(C(F)(F)F)cc2N2CCCC2)CCN1C(=O)n1ccc(C(=O)O)n1` [Example 327, (R)-1-(2-methyl-4-(2-(pyrrolidin-1-yl)-4-(trifluoromethyl)-benzyl)-piperazine-1-carbonyl)-1H-pyrazole-3-carboxylic acid] the figure was less than 0.1 µM; with `NC(=O)c1ccn(C(=O)N2CCC3(CCN(Cc4cccc(C(F)(F)F)c4)C3)CC2)n1` [Example 284, 1-(2-(3-(trifluoromethyl)-benzyl)-2,8-diazaspiro[4.5]-decane-8-carbonyl)-1H-pyrazole-3-carboxamide], less than 0.1 µM.
Still for that read-out and setting: for `Cc1c(CO[C@H]2C[C@@H]3CN(C(=O)n4ccc(C(=O)O)n4)C[C@@H]3C2)cccc1C(F)(F)F` [Example 159, 1-(trans-5-((2-methyl-3-(trifluoromethyl)-benzyl)oxy)-octahydrocyclo-penta-nl [c]pyrrole-2-carbonyl)-1H-pyrazole-3-carboxylic acid] the value was less than 0.1 µM.
